Experimental data taken from US12503461B2, “Pesticidally active heterocyclic derivatives with sulfur and sulfoximine containing substituents” (SYNGENTA CROP PROTECTION AG, priority 2019, dated 2025).

Key:
Format in all cases: in vivo
[1] = tested on: Spodoptera littoralis (Egyptian Cotton Leaf Worm); assay: Example B7: Spodoptera littoralis (Egyptian cotton leaf worm), sprayed cotton leaf discs, L1 larvae; details: foliar, 72 h, application rate of 200 ppm, 3 days after infestation, in comparison to untreated samples
In short: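 Cotton leaf discs on agar were sprayed with aqueous test solutions made from 10′000 ppm DMSO stocks, dried, and infested with five L1 larvae. Mortality, anti-feeding and growth inhibition were scored against untreated samples 3 days after infestation; control means any category exceeds the untreated sample.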

[2] = tested on: Plutella xylostella (Diamond Back Moth); assay: Example B4: Plutella xylostella (diamond back moth), treated artificial diet, eggs; details: 192 h, application rate of 200 ppm, 8 days after infestation, in comparison to untreated samples, read-out: effect in at least one of the two categories (mortality or growth inhibition)
Description: Example B4: Plutella xylostella (Diamond Back Moth
24-well microtiter plates with artificial diet were treated with aqueous test solutions prepared from 10′000 ppm DMSO stock solutions by pipetting. After drying, Plutella eggs were pipetted through a plastic stencil onto a gel blotting paper and the plate was closed with it. The samples were assessed for mortality and growth inhibition in comparison to untreated samples 8 days after infestation.

[3] = tested on: Chilo suppressalis (Striped Rice Stemborer); assay: Example B9: Chilo suppressalis (striped rice stemborer), treated artificial diet, L2 larvae; details: 144 h, application rate of 200 ppm, 6 days after infestation, in comparison to untreated samples, read-out: control (mortality, anti-feeding effect, or growth inhibition)
Description: Example B9: Chilo suppressalis (Striped Rice Stemborer
24-well microtiter plates with artificial diet were treated with aqueous test solutions prepared from 10′000 ppm DMSO stock solutions by pipetting. After drying, the plates were infested with L2 larvae (6-8 per well). The samples were assessed for mortality, anti-feeding effect, and growth inhibition in comparison to untreated samples 6 days after infestation. Control of Chilo suppressalis by a test sample is given when at least one of the categories mortality, anti-feedant effect, and growth inhibition is higher than the untreated sample.

[4] = tested on: Frankliniella occidentalis (Western Flower Thrips); assay: Example B3: Frankliniella occidentalis (western flower thrips), sprayed sunflower leaf discs; details: foliar, 168 h, application rate of 200 ppm, population of mixed ages, 7 days after infestation
Description: Example B3: Frankliniella occidentalis (Western Flower Thrips
Sunflower leaf discs were placed on agar in 24-well microtiter plates and sprayed with aqueous test solutions prepared from […] stock solutions. After drying the leaf discs were infested with a Frankliniella population of mixed ages. The samples were assessed for mortality 7 days after infestation.

[5] = tested on: Myzus persicae (Green Peach Aphid); assay: Example B5: Myzus persicae (green peach aphid), feeding/contact activity, sprayed sunflower leaf discs; details: foliar, 144 h, application rate of 200 ppm, aphid population of mixed ages, 6 days after infestation
Description: Example B5: Myzus persicae (Green Peach Aphid). Feeding/Contact Activity
Sunflower leaf discs were placed onto agar in a 24-well microtiter plate and sprayed with aqueous test solutions prepared from 10′000 ppm DMSO stock solutions. After drying, the leaf discs were infested with an aphid population of mixed ages. The samples were assessed for mortality 6 days after infestation.

[6] = tested on: Bemisia tabaci (Cotton White Fly); assay: Example B6: Bemisia tabaci (cotton white fly), feeding/contact activity, sprayed cotton leaf discs; details: foliar, 144 h, application rate of 200 ppm, adult white flies, 6 days after incubation
Description: Example B6: Bemisia tabaci (Cotton White Fly). Feeding/Contact Activity
Cotton leaf discs were placed on agar in 24-well microtiter plates and sprayed with aqueous test solutions prepared from 10′000 ppm DMSO stock solutions. After drying the leaf discs were infested with adult white flies. The samples were checked for mortality 6 days after incubation.

[7] = tested on: Diabrotica balteata (Corn Root Worm); assay: Example B1: Diabrotica balteata (corn root worm), sprayed maize sprouts on agar, L2 larvae; details: 96 h, application rate of 200 ppm, 4 days after infestation, in comparison to untreated samples, read-out: effect in at least one of the two categories (mortality or growth inhibition)
Description: Example B1: Diabrotica balteata (Corn Root Worm
Maize sprouts placed onto an agar layer in 24-well microtiter plates were treated with aqueous test solutions prepared from 10′000 ppm DMSO stock solutions by spraying. After drying, the plates were infested with L2 larvae (6 to 10 per well). The samples were assessed for mortality and growth inhibition in comparison to untreated samples 4 days after infestation.

[8] = tested on: Euschistus heros (Neotropical Brown Stink Bug); assay: Example B2: Euschistus heros (neotropical brown stink bug), sprayed soybean leaves, N2 nymphs; details: 120 h, application rate of 200 ppm, 5 days after infestation, in comparison to untreated samples, read-out: effect in at least one of the two categories (mortality or growth inhibition)
Description: Example B2: Euschistus heros (Neotropical Brown Stink Bug
Soybean leaves on agar in 24-well microtiter plates were sprayed with aqueous test solutions prepared from 10′000 ppm DMSO stock solutions. After drying the leaves were infested with N2 nymphs. The samples were assessed for mortality and growth inhibition in comparison to untreated samples 5 days after infestation.

CCS(=O)(=O)c1cc(C2(C#N)CC2)cnc1-c1nc2cc(S(=O)(=NCC(F)(F)F)C(F)(F)F)cnc2n1C (stereo not drawn) [P57, 1-[5-ethylsulfonyl-6-[3-methyl-6-[N-(2,2,2-trifluoroethyl)-S-(trifluoromethyl)sulfonimidoyl]imidazo[4,5-b]pyridin-2-yl]-3-pyridyl]cyclopropanecarbonitrile]
≥ 80%: percent control (mortality, anti-feeding effect or growth inhibition) at 200 ppm [1] | percent effect (mortality or growth inhibition) at 200 ppm [2] | percent control (mortality, anti-feedant effect or growth inhibition) at 200 ppm [3] | mortality at 200 ppm [4] | mortality at 200 ppm [5] | mortality at 200 ppm [6] | percent effect (mortality or growth inhibition) at 200 ppm [7]

CCS(=O)(=O)c1cc(C2(C#N)CC2)cnc1-c1nc2cc(S(=O)(=NC3CC3)C(F)(F)F)cnc2n1C (stereo not drawn) [P58, 1-[6-[6-[N-cyclopropyl-S-(trifluoromethyl)sulfonimidoyl]-3-methyl-imidazo[4,5-b]pyridin-2-yl]-5-ethylsulfonyl-3-pyridyl]cyclopropanecarbonitrile]
≥ 80%: percent control (mortality, anti-feeding effect or growth inhibition) at 200 ppm [1] | percent effect (mortality or growth inhibition) at 200 ppm [2] | percent control (mortality, anti-feedant effect or growth inhibition) at 200 ppm [3] | mortality at 200 ppm [6] | effect (mortality or growth inhibition) at 200 ppm [8] | percent effect (mortality or growth inhibition) at 200 ppm [7]
